# Measured values reported in patent US20250042886A1, “BIS(HETERO)ARYL THIOETHER OXADIAZINES AS FUNGICIDAL COMPOUNDS” (Bayer Aktiengesellschaft, priority 2021, published 2025).
# How the values were obtained:
# Sphaerotheca fuliginea = test: In vivo preventive test on Sphaerotheca fuliginea (powdery mildew on cucurbits); conditions: Podosphaera fuliginea, 192 h; 500 ppm of active ingredient, sprayed on young gherkin plants 24 h before inoculation; evaluated 8 days after inoculation; read-out: efficacy
# Experimental: (§1) B-3. […] The active ingredients were made soluble and homogenized in a mixture of Dimethyl sulfoxide/Acetone//Tween® 80 and then diluted in water to the desired concentration. The young plants of gherkin were treated by spraying the active ingredient prepared as described above. Control plants were treated only with an aqueous solution of Acetone/Dimethyl sulfoxide/Tween® 80. After 24 hours, the plants were contaminated by spraying the leaves with an aqueous suspension of Sphaerotheca fuliginea spores.
# Pyrenophora teres = Pyrenophora teres in vitro cell test; assay type: cell-based; conditions: 144 h, 20 ppm of active ingredient, liquid culture, 6 days incubation, read-out: efficacy (inhibition of fungal growth)
# Procedure, shortened: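 Compounds in DMSO were added to P. teres spore suspensions in glucose/peptone/yeast-extract liquid medium, testing inhibition of spore germination and mycelium growth. After 6 days, mycelium growth was read by absorbance. Inhibition was calculated relative to fungicide-free control wells.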
# Alternaria brassicae = test: In vivo preventive test on Alternaria brassicae (leaf spot on radish or cabbage); conditions: 500 ppm of active ingredient, sprayed on young radish or cabbage plants 24 h before inoculation, evaluated 3 to 4 days after inoculation, read-out: efficacy
# Procedure, shortened: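 Young radish or cabbage plants sprayed preventively with compound formulated in DMSO/acetone/Tween 80 and diluted in water; vehicle-treated plants as controls. Leaves inoculated by spraying an aqueous Alternaria brassicae spore suspension 24 h after treatment.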
# [1] = system: Colletotrichum lindemuthianum; test: In vivo preventive test on Colletotrichum lindemuthianum (leaf spot on bean); conditions: 168 h, 500 ppm of active ingredient, sprayed on young bean plants 24 h before inoculation, evaluated 7 days after inoculation, read-out: efficacy
# Experimental: as §1, with “B-4.” for “B-3.”, “bean” for “gherkin”, “Colletotrichum lindemuthianum” for “Sphaerotheca fuliginea”
# [2] = system: Colletotrichum lindemuthianum; test: Colletotrichum lindemuthianum in vitro cell test; assay type: cell-based; conditions: 144 h, 20 ppm of active ingredient, liquid culture, 6 days incubation, read-out: efficacy (inhibition of fungal growth)
# Procedure, shortened: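 Inhibition of spore germination and mycelium growth, as absorbance relative to untreated wells, was read on day 6. Compounds from DMSO stocks were added to a spore suspension in glucose/peptone/yeast extract broth.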
# [3] = Measurement of Log P values by HPLC on reversed phase columns (EEC directive 79/831 Annex V.A8); assay type: physicochemical; conditions: Table 1, compounds of formula (I); method [a]: LC-UV, acidic range, 0.1% formic acid in water and acetonitrile
# Botrytis cinerea [4] = test: In vivo preventive test on Botrytis cinerea (grey mould); conditions: 500 ppm of active ingredient, sprayed on young gherkin or cabbage plants 24 h before inoculation, evaluated 4 to 5 days after inoculation, read-out: efficacy
# Procedure, shortened: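 Young plants of gherkin or cabbage were sprayed with water-diluted compound formulated in DMSO/acetone/Tween 80, with solvent-only controls. Inoculation followed 24 h later by spraying an aqueous spore suspension of Botrytis cinerea onto leaves.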
# Septoria tritici = Septoria tritici in vitro cell test; assay type: cell-based; conditions: Zymoseptoria tritici, 168 h; 20 ppm of active ingredient; liquid culture, 7 days incubation; read-out: efficacy (inhibition of fungal growth)
# Experimental: B-11. Septoria tritici In Vitro Cell Test • Solvent: DMSO • Culture medium: 1 g KH2PO4 (VWR), 1 g K2HPO4 (VWR), 0.5 g Urea (VWR), 3 g KNO3 (Prolabo), 10 g saccharose (VWR), 0.5 g MgSO4, 7H2O (Sigma), 0.07 g CaCl2, 2H2O (Prolabo), 0.2 mg MnSO4, H2O (Sigma), 0.6 mg CuSO4, 5H2O (Sigma), 7.9 mg ZnSO4, 7H2O (Sigma), 0.1 mg H3BO3 (Merck), 0.14 mg NaMoO4, 2H2O (Sigma), 2 mg thiamine (Sigma), 0.1 mg biotine (VWR), 4 mg FeSO4, 7H2O (Sigma), QSP 1 liter • Inoculum: spore suspension Fungicides were solubilized in DMSO and the solution used to prepare the required range of concentrations. […] A spore suspension of S. tritici was prepared and diluted to the desired spore density. Fungicides were evaluated for their ability to inhibit spore germination and mycelium growth in liquid culture assay. The compounds were added in the desired concentration to the culture medium with spores. […] Inhibition of fungal growth was determined by comparing the absorbance values in wells containing the fungicides with the absorbance in control wells without fungicides.
# Fusarium culmorum = Fusarium culmorum in vitro cell test; assay type: cell-based; conditions: 120 h, 20 ppm of active ingredient, liquid culture, 5 days incubation, read-out: efficacy (inhibition of fungal growth)
# Procedure, shortened: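 Spores in liquid mineral-salts/saccharose medium exposed to compounds (DMSO ≤1% final) for 5 days. Mycelium growth measured spectrometrically, with inhibition derived from absorbance relative to fungicide-free control wells.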
# Botrytis cinerea [5] = test: Botrytis cinerea in vitro cell test; assay type: cell-based; conditions: 144 h, 20 ppm of active ingredient, liquid culture, 6 days incubation, read-out: efficacy (inhibition of fungal growth)
# Procedure, shortened: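 Liquid-culture germination/growth test: spore suspension in synthetic medium (salts, urea, KNO3, saccharose, trace elements, thiamine, biotin) with compound dissolved in DMSO. Absorbance of mycelial growth measured at day 6, compared with untreated wells to give inhibition.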
# Pyricularia oryzae = test: microbe, parasite or virus in culture; assay type: cell-based; conditions: 120 h, read-out: efficacy (inhibition of fungal growth), 20 ppm of active ingredient, liquid culture, 5 days incubation
# Alternaria alternata = Alternaria alternata in vitro cell test; assay type: cell-based; conditions: 120 h, 20 ppm of active ingredient, liquid culture, 5 days incubation, read-out: efficacy (inhibition of fungal growth)
# Procedure, shortened: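 Spores in glucose/mycological peptone/yeast extract liquid medium were exposed to DMSO-dissolved fungicides for 5 days. Inhibition of germination and mycelial growth was read spectrophotometrically, comparing absorbance against fungicide-free control wells.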
smiles,measurement,setting,value
Cc1cccc(Sc2cnc(C)nc2C2=NOC[C@@H](Cc3ccc(C)cc3Cl)N2)c1 (racemic) [Compound I-010],pest or weed control at 500 ppm,Sphaerotheca fuliginea,90 to 100%
same,inhibition at 20 ppm,Pyrenophora teres,90 to 100%
same,pest or weed control at 500 ppm,Alternaria brassicae,80 to 89%
same,pest or weed control at 500 ppm,[1],90 to 100%
same,inhibition at 20 ppm,[2],90 to 100%
same,chromatographic logP,[3],5.17
same,pest or weed control at 500 ppm,Botrytis cinerea [4],90 to 100%
same,inhibition at 20 ppm,Septoria tritici,90 to 100%
same,inhibition at 20 ppm,Fusarium culmorum,90 to 100%
FC(F)(F)c1ccc(Sc2nnc(Cl)cc2C2=NOC[C@@H](Cc3ccc(Br)cc3Cl)N2)cc1 (racemic) [Compound I-035],pest or weed control at 500 ppm,Sphaerotheca fuliginea,80 to 89%
same,pest or weed control at 500 ppm,[1],90 to 100%
same,chromatographic logP,[3],5
same,pest or weed control at 500 ppm,Botrytis cinerea [4],90 to 100%
COc1cccc(Sc2cnc(C)nc2C2=NOC[C@H](Cc3ccc(C)cc3C)N2)c1 (racemic) [Compound I-009],pest or weed control at 500 ppm,Alternaria brassicae,80 to 89%
same,pest or weed control at 500 ppm,[1],70 to 79%
same,inhibition at 20 ppm,[2],80 to 89%
same,inhibition at 20 ppm,Botrytis cinerea [5],90 to 100%
same,chromatographic logP,[3],4.67
same,pest or weed control at 500 ppm,Botrytis cinerea [4],80 to 89%
same,inhibition at 20 ppm,Septoria tritici,70 to 79%
Cc1ccc(C[C@H]2CON=C(c3nc(C)ncc3Sc3cccc(C(F)(F)F)c3)N2)c(C)c1 (racemic) [Compound I-007],pest or weed control at 500 ppm,Sphaerotheca fuliginea,90 to 100%
same,inhibition at 20 ppm,Pyrenophora teres,90 to 100%
same,pest or weed control at 500 ppm,[1],90 to 100%
same,inhibition at 20 ppm,Pyricularia oryzae,70 to 79%
same,inhibition at 20 ppm,[2],90 to 100%
same,inhibition at 20 ppm,Botrytis cinerea [5],90 to 100%
same,chromatographic logP,[3],5.21
same,pest or weed control at 500 ppm,Botrytis cinerea [4],90 to 100%
same,inhibition at 20 ppm,Septoria tritici,80 to 89%
Cc1ccc(C[C@H]2CON=C(c3nc(C)ncc3Sc3cccc(C(F)(F)F)c3)N2)c(Cl)c1 (racemic) [Compound I-013],pest or weed control at 500 ppm,Sphaerotheca fuliginea,90 to 100%
same,pest or weed control at 500 ppm,Alternaria brassicae,80 to 89%
same,pest or weed control at 500 ppm,[1],90 to 100%
same,inhibition at 20 ppm,[2],90 to 100%
same,inhibition at 20 ppm,Botrytis cinerea [5],90 to 100%
same,chromatographic logP,[3],5.28
same,pest or weed control at 500 ppm,Botrytis cinerea [4],90 to 100%
same,inhibition at 20 ppm,Septoria tritici,90 to 100%
Clc1ccc(C[C@@H]2CON=C(c3cc(Cl)nnc3Sc3cccc(Br)c3)N2)c(Cl)c1 (racemic) [Compound I-005],pest or weed control at 500 ppm,Sphaerotheca fuliginea,80 to 89%
same,inhibition at 20 ppm,Pyricularia oryzae,90 to 100%
same,inhibition at 20 ppm,[2],90 to 100%
same,inhibition at 20 ppm,Botrytis cinerea [5],90 to 100%
same,chromatographic logP,[3],4.88
same,pest or weed control at 500 ppm,Botrytis cinerea [4],90 to 100%
Cc1cccc(Sc2cnc(Cl)cc2C2=NOC[C@@H](Cc3ccc(Cl)cc3Cl)N2)c1 (racemic) [Compound I-011],inhibition at 20 ppm,Pyrenophora teres,90 to 100%
same,inhibition at 20 ppm,Pyricularia oryzae,90 to 100%
same,inhibition at 20 ppm,[2],90 to 100%
same,inhibition at 20 ppm,Botrytis cinerea [5],90 to 100%
same,inhibition at 20 ppm,Alternaria alternata,70 to 79%
same,chromatographic logP,[3],4.86
same,pest or weed control at 500 ppm,Botrytis cinerea [4],90 to 100%
same,inhibition at 20 ppm,Septoria tritici,90 to 100%
same,inhibition at 20 ppm,Fusarium culmorum,90 to 100%
"Cc1ccc(CC2CON=C(c3cc(Cl)nnc3Sc3cccc(C(F)(F)F)c3)N2)c(C)c1 (racemic) [Compound I-017, (5RS)-3-(6-chloro-3-{[3-(trifluoromethyl)phenyl]sulfanyl}pyridazin-4-yl)-5-(2,4-dimethylbenzyl)-5,6-dihydro-4H-1,2,4-oxadiazine]",pest or weed control at 500 ppm,Sphaerotheca fuliginea,90 to 100%
same,pest or weed control at 500 ppm,Alternaria brassicae,90 to 100%
same,pest or weed control at 500 ppm,[1],90 to 100%
same,inhibition at 20 ppm,Pyricularia oryzae,80 to 89%
same,inhibition at 20 ppm,[2],90 to 100%
same,inhibition at 20 ppm,Botrytis cinerea [5],90 to 100%
same,inhibition at 20 ppm,Alternaria alternata,80 to 89%
same,chromatographic logP,[3],5.27
same,pest or weed control at 500 ppm,Botrytis cinerea [4],90 to 100%
same,inhibition at 20 ppm,Septoria tritici,90 to 100%
